Source: ChEMBL document CHEMBL2311517, “Novel route to chaetomellic acid A and analogues: serendipitous discovery of a more competent FTase inhibitor” (Bioorg Med Chem, 2013)
pIC50: −log10 of the molar value. Where a SMILES comes first, the peptide text is derived from it. The star is where a group is joined. Dansyl = CN(C)c1cccc2c(S(=O)(=O)*)cccc12

What was measured:
Rattus norvegicus [1] = species: Rattus norvegicus; assay: Activity of rat farnesyltransferase
Rattus norvegicus [2] = species: Rattus norvegicus; assay: Ratio of […] to Km for rat farnesyltransferase
[3] = Inhibition of yeast farnesyltransferase using dansyl-GCVIA as substrate preincubated for 5 mins measured over 300 secs by continuous fluorescence assay; design: species or system Saccharomyces cerevisiae
[4] = Inhibition of rat farnesyltransferase using dansyl-GCVIA as substrate preincubated for 5 mins measured over 300 secs by continuous fluorescence assay

`CC[C@H](C)[C@H](NC(=O)[C@@H](NC(=O)[C@H](CS)NC(=O)CNS(=O)(=O)c1cccc2c(N(C)C)cccc12)C(C)C)C(=O)N[C@@H](C)C(=O)O` (Dansyl-GCVIA-OH) showed a kcat (Rattus norvegicus [1]) of over 0.2 s⁻¹ and a kcat/Km (Rattus norvegicus [2]) of 120000 M⁻¹ s⁻¹.

For `CC(C)=CCC/C(C)=C/CC/C(C)=C/C/C(C(=O)O)=C(\C)C(=O)O`, the pIC50 [3] was 5.62.

Work on `CCCCCCCCCCCC/C(C(=O)O)=C(\C)C(=O)O` [CHAETOMELLIC ACID C] yielded a pIC50 [3] of 5.40.

With `C=CCCCCCCC/C(C(=O)O)=C(\C)C(=O)O` the pIC50 [4] was 6.31 and the pIC50 [3] was 4.87.

With `CCCCCCCCCCCCCC/C(C(=O)O)=C(\C)C(=O)O` the pIC50 [4] was 6.04 and the pIC50 [3] was 4.80.

`CC(C)C[C@H](NC(=O)[C@@H](NC(=O)[C@H](CS)NC(=O)CNS(=O)(=O)c1cccc2c(N(C)C)cccc12)C(C)C)C(=O)N[C@@H](CO)C(=O)O` (Dansyl-GCVLS-OH) gave a kcat (Rattus norvegicus [1]) of 0.4 s⁻¹ and a kcat/Km (Rattus norvegicus [2]) of 170000 M⁻¹ s⁻¹.

`CCCCCCCCCCCCCCCC/C(C(=O)O)=C(\C)C(=O)O` showed a pIC50 [4] of 5.59 and a pIC50 [3] of 4.18.

Compound `CCCCSCCCCCCCCC/C(C(=O)O)=C(\C)C(=O)O` has a pIC50 [4] of 6.72 and a pIC50 [3] of 5.46.
